In US20260193293A1, “PEPTIDES CAPABLE OF INHIBITING PROTEIN-PROTEIN INTERACTIONS AT GABAB1A SUBUNIT AND USES THEREOF” (UNIVERSITY OF COPENHAGEN, priority 2022, published 2026):
Read-outs that look alike come from different tables or passages of the source. Non-standard residues stand in square brackets, D forms with d. Residues, ends and D or L forms follow the SMILES beside them. 1Nal = N[C@@H](Cc1cccc2ccccc12)C(=O)O; NMeI = CC[C@H](C)[C@H](NC)C(=O)O; 4Pal = N[C@@H](Cc1ccncc1)C(=O)O; NMeV = CN[C@H](C(=O)O)C(C)C

Molecular target: Sushi domains (SD1/2) protein
Assay: Fluorescence polarization (FP) competition assay with AJAP-1probe, calculated Ki
Type: binding
Summary of the method: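 Ki values were derived from IC50s (sigmoidal fits, ≥ triplicate), with probe Kd obtained by saturation titration of SD1/2. Peptides displaced a 25 nM TAMRA-labelled probe; polarization read at 530/580 nm in 1% BSA-containing PBS, pH 7.4, room temperature.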

[1] = Table 16, ncAAs incorporated peptides, read-out: Ki (nM) mean ± SEM
[2] = Table 9, Ala-, D-amino acids and N-methylation scans of PIANPWT, read-out: Ki (nM) mean ± SEM
[3] = CPP tagged peptides overview, SD1/2 binding affinity, mean ± SEM, n ≥ 3, read-out: Ki
[4] = Table 14, CPPs tagged peptides, read-out: Ki (nM) mean ± SEM

With `CC(=O)N[C@@H](CCC(=O)O)C(=O)N[C@@H](CC(=O)O)C(=O)N[C@@H](CC(=O)O)C(=O)N[C@@H](CO)C(=O)N[C@@H](Cc1ccncc1)C(=O)N[C@H](C(=O)N[C@@H](Cc1c[nH]c2ccccc12)C(=O)N[C@@H](Cc1c[nH]c2ccccc12)C(=O)NCC(=O)NCC(=O)N[C@@H](C)C(=O)N[C@@H](CC(=O)O)C(=O)N[C@H](C(=O)N[C@@H](CC(=O)O)C(N)=O)[C@@H](C)O)C(C)C` (Ac-EDDS[4Pal]VWWGGADTD-NH2) the Ki [1] was 424 ± 13 nM.

`CC[C@H](C)[C@H](NC(=O)[C@H](C)NC(=O)[C@H](Cc1c[nH]c2ccccc12)NC(=O)[C@@H]1CCCN1C(C)=O)C(=O)N(C)[C@H](C(=O)N[C@@H](Cc1c[nH]c2ccccc12)C(=O)NCC(=O)N1CCC[C@H]1C(=O)N[C@H](C(=O)N[C@H](C(=O)N[C@@H](CO)C(=O)N[C@@H](CCCNC(=N)N)C(=O)N[C@@H](CCC(=O)O)C(=O)N[C@@H](CC(=O)O)C(N)=O)C(C)C)[C@@H](C)O)C(C)C` [PWAI(N-Me-V)WGPTVSRED] (Ac-PWAI[NMeV]WGPTVSRED-NH2) showed a Ki [2] of 7000 ± 100 nM.

For `CC[C@H](C)[C@H](NC(=O)[C@H](Cc1ccccc1)NC(=O)[C@H](CCC(=O)O)NC(=O)[C@@H](NC(=O)[C@H](CCC(=O)O)NC(=O)[C@@H](NC(C)=O)[C@@H](C)O)[C@@H](C)O)C(=O)N[C@@H](C)C(=O)N[C@@H](Cc1c[nH]c2ccccc12)C(=O)NCC(=O)N1CCC[C@H]1C(=O)N[C@H](C(=O)NCC(=O)N[C@@H](CC(=O)O)C(N)=O)[C@@H](C)O` (Ac-TETEFIAWGPTGD-NH2), the Ki (Table 5, elongation and truncation scan of AJAP-1 binding epitope, read-out: Ki (nM) mean ± SEM) was 97 ± 7 nM.

In the case of `CC[C@H](C)[C@H](NC(=O)[C@H](CCCCN)NC(=O)[C@H](CCC(=O)O)NC(=O)[C@@H](NC(=O)[C@H](CCC(=O)O)NC(C)=O)[C@@H](C)O)C(=O)N[C@@H](C)C(=O)N[C@@H](Cc1c[nH]c2ccccc12)C(=O)NCC(=O)N1CCC[C@H]1C(=O)N[C@H](C(=O)NCC(=O)N[C@@H](CC(=O)O)C(=O)N[C@@H](CCC(=O)O)C(=O)N[C@@H](CC(=O)O)C(N)=O)[C@@H](C)O` [ETEKIAWGPTGDED] (Ac-ETEKIAWGPTGDED-NH2), the Ki (Table 11, cells printed in μM, read-out: Ki (nM) mean ± SEM) is reported as > 6250 nM.

For `CC[C@H](C)[C@H](NC(=O)[C@H](C)NC(=O)[C@H](CCC(=O)O)NC(=O)[C@@H](NC(=O)[C@H](CCC(=O)O)NC(C)=O)[C@@H](C)O)C(=O)N[C@@H](C)C(=O)N[C@@H](Cc1c[nH]c2ccccc12)C(=O)NCC(=O)N1CCC[C@H]1C(=O)N[C@H](C(=O)NCC(=O)N[C@@H](CC(=O)O)C(=O)N[C@@H](CCC(=O)O)C(=O)N[C@@H](CC(=O)O)C(N)=O)[C@@H](C)O` [ETEAIAWGPTGDED] (Ac-ETEAIAWGPTGDED-NH2), the Ki (Table 8, Ala-, D-amino acids and N-methylation scans of AJAP-1WT, read-out: Ki (nM) mean ± SEM) was 688 ± 11 nM.

For `CC[C@H](C)[C@@H](C(=O)N[C@H](C(=O)N[C@@H](Cc1c[nH]c2ccccc12)C(=O)NCC(=O)N1CCC[C@H]1C(=O)N[C@H](C(=O)N[C@H](C(=O)N[C@@H](CO)C(=O)N[C@@H](CCCNC(=N)N)C(=O)N[C@@H](CCC(=O)O)C(=O)N[C@@H](CC(=O)O)C(N)=O)C(C)C)[C@@H](C)O)C(C)C)N(C)C(=O)[C@H](C)NC(=O)[C@H](Cc1c[nH]c2ccccc12)NC(=O)[C@@H]1CCCN1C(C)=O` [PWA(N-Me-I)VWGPTVSRED] (Ac-PWA[NMeI]VWGPTVSRED-NH2), the Ki [2] was 370 ± 5 nM.

`CC[C@H](C)[C@H](NC(=O)[C@H](Cc1c[nH]c2ccccc12)NC(=O)[C@H](CC(=O)O)NC(=O)[C@H](CC(=O)O)NC(=O)[C@H](CC(=O)O)NC(=O)[C@H](CCC(=O)O)NC(C)=O)C(=O)N[C@@H](CC(=O)O)C(=O)N[C@@H](Cc1c[nH]c2ccccc12)C(=O)N[C@@H](Cc1ccc(O)cc1)C(=O)N[C@@H](CC(=O)O)C(=O)N[C@@H](CO)C(=O)N[C@@H](CC(=O)O)C(=O)N[C@@H](CC(=O)O)C(=O)N[C@@H](CC(=O)O)C(=O)NCC(=O)NCC(=O)NCC(=O)NCC(=O)N[C@@H](CO)C(=O)N[C@@H](CCCNC(=N)N)C(=O)N[C@@H](CCCNC(=N)N)C(=O)N[C@@H](CCCNC(=N)N)C(=O)N[C@@H](CCCNC(=N)N)C(=O)N[C@@H](CCCNC(=N)N)C(=O)N[C@@H](CCCNC(=N)N)C(=O)N[C@@H](CCCNC(=N)N)C(=O)N[C@@H](CCCNC(=N)N)C(N)=O` [Peptide 16-FL-R8] (Ac-EDDDWIDWYDSDDDGGGGSRRRRRRRR-NH2) gave a Ki [3] of 118 ± 3 nM and a Ki [4] of 118 ± 3 nM.

`CC(=O)N[C@@H](CCC(=O)O)C(=O)N[C@@H](CC(=O)O)C(=O)N[C@@H](CC(=O)O)C(=O)N[C@@H](CO)C(=O)N[C@@H](Cc1cccc2ccccc12)C(=O)N[C@H](C(=O)N[C@@H](Cc1c[nH]c2ccccc12)C(=O)N[C@@H](Cc1c[nH]c2ccccc12)C(=O)NCC(=O)NCC(=O)N[C@@H](C)C(=O)N[C@@H](CC(=O)O)C(=O)N[C@H](C(=O)N[C@@H](CC(=O)O)C(N)=O)[C@@H](C)O)C(C)C` (Ac-EDDS[1Nal]VWWGGADTD-NH2) showed a Ki [1] of 69 ± 3 nM.

`CC[C@H](C)[C@H](NC(=O)[C@H](Cc1c[nH]c2ccccc12)NC(=O)[C@H](CC(=O)O)NC(=O)[C@H](CC(=O)O)NC(=O)[C@H](CC(=O)O)NC(=O)[C@H](CCC(=O)O)NC(C)=O)C(=O)N[C@@H](CC(=O)O)C(=O)N[C@@H](Cc1c[nH]c2ccccc12)C(=O)NCC(=O)N1CCC[C@H]1C(=O)N[C@H](C(=O)N[C@@H](CO)C(=O)N[C@@H](CC(=O)O)C(=O)N[C@@H](CC(=O)O)C(=O)N[C@@H](CC(=O)O)C(=O)NCC(=O)NCC(=O)NCC(=O)NCC(=O)N[C@@H](CO)C(=O)N[C@@H](CCCNC(=N)N)C(=O)N[C@@H](CCCNC(=N)N)C(=O)N[C@@H](CCCNC(=N)N)C(=O)N[C@@H](CCCNC(=N)N)C(=O)N[C@@H](CCCNC(=N)N)C(=O)N[C@@H](CCCNC(=N)N)C(=O)N[C@@H](CCCNC(=N)N)C(=O)N[C@@H](CCCNC(=N)N)C(N)=O)[C@@H](C)O` [Peptide 17-FL-R8] (Ac-EDDDWIDWGPTSDDDGGGGSRRRRRRRR-NH2) showed a Ki [3] of 147 ± 9 nM and a Ki [4] of 147 ± 9 nM.

`CC[C@H](C)[C@H](NC(=O)[C@H](Cc1ccccc1)NC(=O)[C@H](CCC(=O)O)NC(=O)[C@@H](NC(=O)[C@H](CCC(=O)O)NC(C)=O)[C@@H](C)O)C(=O)N[C@@H](C)C(=O)N[C@@H](Cc1c[nH]c2ccccc12)C(=O)NCC(=O)N1CCC[C@H]1C(=O)N[C@H](C(=O)NCC(=O)N[C@@H](CC(=O)O)C(=O)N[C@@H](Cc1c[nH]c2ccccc12)C(=O)N[C@@H](CC(=O)O)C(N)=O)[C@@H](C)O` (Ac-ETEFIAWGPTGDWD-NH2) showed a Ki (Table 11, deep mutational scanning validation variants of AJAP-1WT, read-out: Ki (nM) mean ± SEM) of 54 ± 1 nM.

`CC[C@H](C)[C@H](NC(=O)[C@H](C)NC(=O)[C@H](Cc1c[nH]c2ccccc12)NC(=O)[C@@H]1CCCN1C(C)=O)C(=O)N[C@H](C(=O)N[C@@H](Cc1c[nH]c2ccccc12)C(=O)NCC(=O)N1CCC[C@H]1C(=O)N[C@H](C(=O)N[C@H](C(=O)N[C@@H](CO)C(=O)N[C@@H](CCCNC(=N)N)C(=O)N[C@@H](CCC(=O)O)C(=O)N[C@@H](CC(=O)O)C(=O)NCC(=O)NCC(=O)N[C@@H](CC(=O)O)C(=O)N1CCC[C@H]1C(=O)N[C@@H](CC(N)=O)C(N)=O)C(C)C)[C@@H](C)O)C(C)C` (Ac-PWAIVWGPTVSREDGGDPN-NH2) showed a Ki (Table 6, elongation and truncation scan of PIANP binding epitope, read-out: Ki (nM) mean ± SEM) of 579 ± 21 nM.

In the case of `CC[C@H](C)[C@H](NC(=O)[C@H](Cc1ccccc1)NC(=O)[C@H](CCC(=O)O)NC(=O)[C@@H](NC(=O)[C@H](CCC(=O)O)NC(C)=O)[C@@H](C)O)C(=O)N[C@@H](C)C(=O)N[C@@H](Cc1c[nH]c2ccccc12)C(=O)N[C@@H](Cc1ccc(O)cc1)C(=O)NCC(=O)N[C@@H](C)C(=O)N[C@@H](CC(=O)O)C(=O)N[C@H](C(=O)N[C@@H](CC(=O)O)C(N)=O)[C@@H](C)O` [Peptide 37] (Ac-ETEFIAWYGADTD-NH2), the Ki (Table 1, affinity maturation, mean ± SEM, n ≥ 3, read-out: Ki) is reported as 95 ± 5 nM and the Ki (Table 13, peptides for affinity maturation, read-out: Ki (nM) mean ± SEM) is reported as 95 ± 5 nM.

In the case of `CC(=O)N1CCC[C@H]1C(=O)N[C@@H](Cc1c[nH]c2ccccc12)C(=O)N[C@@H](C)C(=O)N[C@@H](C)C(=O)N[C@H](C(=O)N[C@@H](Cc1c[nH]c2ccccc12)C(=O)NCC(=O)N1CCC[C@H]1C(=O)N[C@H](C(=O)N[C@H](C(=O)N[C@@H](CO)C(=O)N[C@@H](CCCNC(=N)N)C(=O)N[C@@H](CCC(=O)O)C(=O)N[C@@H](CC(=O)O)C(N)=O)C(C)C)[C@@H](C)O)C(C)C` [PWAAVWGPTVSRED] (Ac-PWAAVWGPTVSRED-NH2), the Ki [2] is reported as 46600 ± 4840 nM.

`CC[C@H](C)[C@H](NC(=O)[C@H](C)NC(=O)[C@H](CC(=O)O)NC(=O)[C@@H]1CCCN1C(C)=O)C(=O)N[C@H](C(=O)N[C@@H](Cc1c[nH]c2ccccc12)C(=O)NCC(=O)N1CCC[C@H]1C(=O)N[C@H](C(=O)N[C@H](C(=O)N[C@@H](CO)C(=O)N[C@@H](CCCNC(=N)N)C(=O)N[C@@H](CCC(=O)O)C(=O)N[C@@H](CC(=O)O)C(N)=O)C(C)C)[C@@H](C)O)C(C)C` [PDAIVWGPTVSRED] (Ac-PDAIVWGPTVSRED-NH2) showed a Ki (Table 12, deep mutational scanning validation variants of PIANPWT, read-out: Ki (nM) mean ± SEM) of 673 ± 7 nM.

In the case of `CC[C@H](C)[C@H](NC(=O)[C@H](Cc1c[nH]c2ccccc12)NC(=O)[C@H](CC(=O)O)NC(=O)[C@H](CC(=O)O)NC(=O)[C@H](CC(=O)O)NC(=O)[C@H](CCC(=O)O)NC(=O)[C@H](CCCNC(=N)N)NC(=O)[C@H](CCCNC(=N)N)NC(=O)[C@H](CCCNC(=N)N)NC(=O)[C@H](CCC(N)=O)NC(=O)[C@H](CCCNC(=N)N)NC(=O)[C@H](CCCNC(=N)N)NC(=O)[C@H](CCCCN)NC(=O)[C@H](CCCCN)NC(=O)[C@H](CCCNC(=N)N)NC(=O)CNC(=O)[C@H](Cc1ccc(O)cc1)NC(C)=O)C(=O)N[C@@H](CC(=O)O)C(=O)N[C@@H](Cc1c[nH]c2ccccc12)C(=O)NCC(=O)N1CCC[C@H]1C(=O)N[C@H](C(=O)N[C@@H](CO)C(=O)N[C@@H](CC(=O)O)C(=O)N[C@@H](CC(=O)O)C(=O)N[C@@H](CC(=O)O)C(N)=O)[C@@H](C)O` [Tat-17] (Ac-YGRKKRRQRRREDDDWIDWGPTSDDD-NH2), the Ki [3] is reported as 50 ± 2 nM and the Ki [4] is reported as 49.9 ± 2 nM.
